Laboratory results taken from patent US11220504B2, “Pyrrolo[3,2-d] pyrimidine derivatives for the treatment of viral infections and other diseases” (JANSSEN SCIENCES IRELAND UNLIMITED COMPANY, priority 2012, dated 2022).

Key:
[1] = biological target: T1, human TLR8 (Homo sapiens, UniProt Q9NR97); assay: TLR8 cellular reporter assay (HEK293, NFκB-luc); assay type: cell-based; details: HEK293 cells transfected with CMV-TLR8 and NFκB-luc, 6 hours incubation; lowest effective concentration
T1 construct: expressed in transfected cells; host or cells: HEK293 cells, transient transfection with TLR8 plasmid and NFκB-luc plasmid
T1 sequence (Q9NR97 27-1041): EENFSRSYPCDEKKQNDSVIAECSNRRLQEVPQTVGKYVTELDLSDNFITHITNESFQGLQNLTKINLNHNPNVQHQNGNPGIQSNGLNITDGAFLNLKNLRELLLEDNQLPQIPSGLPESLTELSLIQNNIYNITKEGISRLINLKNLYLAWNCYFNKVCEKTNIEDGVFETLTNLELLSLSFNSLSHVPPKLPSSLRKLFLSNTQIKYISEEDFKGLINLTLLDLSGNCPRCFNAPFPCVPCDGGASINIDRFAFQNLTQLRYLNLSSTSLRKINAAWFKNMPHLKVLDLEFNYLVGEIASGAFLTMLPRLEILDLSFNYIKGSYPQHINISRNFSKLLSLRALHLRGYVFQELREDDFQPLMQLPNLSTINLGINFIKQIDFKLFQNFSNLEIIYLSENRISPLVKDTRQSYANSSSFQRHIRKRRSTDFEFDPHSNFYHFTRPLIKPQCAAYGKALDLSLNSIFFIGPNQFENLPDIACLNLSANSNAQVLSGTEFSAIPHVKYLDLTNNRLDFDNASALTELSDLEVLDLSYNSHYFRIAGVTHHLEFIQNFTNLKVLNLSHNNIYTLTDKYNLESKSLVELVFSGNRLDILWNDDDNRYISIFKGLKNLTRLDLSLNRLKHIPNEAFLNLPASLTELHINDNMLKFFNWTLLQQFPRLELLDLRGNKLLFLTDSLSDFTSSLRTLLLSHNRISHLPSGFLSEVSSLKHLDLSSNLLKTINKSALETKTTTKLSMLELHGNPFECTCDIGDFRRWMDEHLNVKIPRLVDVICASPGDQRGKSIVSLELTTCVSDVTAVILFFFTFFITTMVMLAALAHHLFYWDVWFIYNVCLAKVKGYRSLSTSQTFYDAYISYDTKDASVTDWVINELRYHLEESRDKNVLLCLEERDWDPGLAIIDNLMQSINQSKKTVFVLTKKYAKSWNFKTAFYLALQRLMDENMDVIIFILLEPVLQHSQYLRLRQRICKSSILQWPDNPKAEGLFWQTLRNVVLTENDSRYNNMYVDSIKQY
Method in brief: (§1)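 HEK293 cells transiently transfected with receptor expression vector plus NFκB-luciferase reporter, exposed to compound (added in 4% DMSO) for 6 hours at 37° C, 5% CO2. Luciferase activity measured by luminescence; dose-response curves from quadruplicate measurements.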

[2] = biological target: T2, human TLR7 (Homo sapiens, UniProt Q9NYK1); assay: TLR7 cellular reporter assay (HEK293, NFκB-luc); assay type: cell-based; details: HEK293 cells transfected with CMV-TLR7 and NFκB-luc, 6 hours incubation; lowest effective concentration
T2 construct: expressed in transfected cells; host or cells: HEK293 cells, transient transfection with CMV-TLR7 plasmid and NFκB-luc plasmid
T2 sequence (Q9NYK1 27-1049): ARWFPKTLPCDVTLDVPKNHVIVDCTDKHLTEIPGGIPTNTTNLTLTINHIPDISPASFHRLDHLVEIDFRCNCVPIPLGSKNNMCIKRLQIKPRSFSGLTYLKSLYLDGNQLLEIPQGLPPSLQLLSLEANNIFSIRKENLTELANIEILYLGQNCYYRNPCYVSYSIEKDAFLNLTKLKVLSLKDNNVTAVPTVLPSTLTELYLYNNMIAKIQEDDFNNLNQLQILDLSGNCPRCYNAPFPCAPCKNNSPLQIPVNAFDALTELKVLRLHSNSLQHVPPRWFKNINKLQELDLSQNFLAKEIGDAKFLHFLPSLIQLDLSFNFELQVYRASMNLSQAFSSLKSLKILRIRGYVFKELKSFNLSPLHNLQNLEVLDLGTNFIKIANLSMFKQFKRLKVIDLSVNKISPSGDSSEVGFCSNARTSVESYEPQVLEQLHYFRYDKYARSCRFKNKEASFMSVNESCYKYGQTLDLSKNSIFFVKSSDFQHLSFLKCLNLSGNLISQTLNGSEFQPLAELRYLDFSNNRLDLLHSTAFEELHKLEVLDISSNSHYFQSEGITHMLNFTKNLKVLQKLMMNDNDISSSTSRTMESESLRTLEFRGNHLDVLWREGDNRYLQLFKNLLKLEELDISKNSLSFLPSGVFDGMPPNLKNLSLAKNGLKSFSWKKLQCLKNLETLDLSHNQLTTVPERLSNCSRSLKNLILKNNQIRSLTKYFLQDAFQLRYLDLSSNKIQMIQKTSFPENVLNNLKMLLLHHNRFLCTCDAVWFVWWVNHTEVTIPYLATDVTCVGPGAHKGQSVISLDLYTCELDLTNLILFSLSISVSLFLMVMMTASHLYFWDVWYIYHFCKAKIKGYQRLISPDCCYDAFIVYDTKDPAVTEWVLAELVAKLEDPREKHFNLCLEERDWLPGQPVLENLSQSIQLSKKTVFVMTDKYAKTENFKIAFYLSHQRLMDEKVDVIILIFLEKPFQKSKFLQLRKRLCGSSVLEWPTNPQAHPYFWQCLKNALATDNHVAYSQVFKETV
Method in brief: as §1

[3] = tested on: interferon-stimulated responsive elements (ISRE); assay: Activation of ISRE promoter elements by conditioned media from PBMC (HEK-ISREluc); assay type: cell-based, human; details: Homo sapiens; conditioned media from PBMC transferred to HEK-ISREluc cells, 24 hours; lowest effective concentration; read-out: PBMC LEC
Method in brief: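 Human PBMCs (≥2 donors, RPMI + 10% human AB serum, 2×10^5 cells/well) incubated overnight with compound; supernatant transferred to HEK293 cells stably carrying pISRE-Luc for 24 h, then luciferase read. LEC = compound concentration on PBMCs giving luciferase signal at least two-fold above assay SD; recombinant IFN-α-2a standard.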

TLR8 LEC [1] | TLR7 LEC [2] | Compound | minimal effective concentration [3]
23.5 µM | 0.60 µM | COCCn1ccc2nc(N)nc(NCc3cc(C(C)C)on3)c21 [Compound 199] | 0.032 µM
11.4 µM | 0.17 µM | COCCn1ccc2nc(N)nc(NCc3cc(C4CC4)on3)c21 [Compound 200] | 0.035 µM
>25 µM | 7.30 µM | COCCn1ccc2nc(N)nc(NC(C)c3cccnc3)c21 (stereo not drawn) [Compound 201] | 0.978 µM
>25 µM | 1.61 µM | COCCn1ccc2nc(N)nc(NCc3ccc(C)cn3)c21 [Compound 202] | 0.58 µM
15 µM | 0.74 µM | COC[C@H](C)Nc1nc(N)nc2ccn(Cc3csc(C)n3)c12 [Compound 206] | 0.129 µM
>25 µM | 5.14 µM | COCc1nc(CNc2nc(N)nc3ccn(Cc4ccccn4)c23)no1 [Compound 208] | 0.402 µM
>25 µM | 7.60 µM | COCCn1ccc2nc(N)nc(NC(C)COC)c21 (stereo not drawn) [Compound 212] | 2.09 µM

The remaining lines, values behind:

Compound | TLR8 LEC [1] | TLR7 LEC [2] | minimal effective concentration [3]
COc1cccnc1Cn1ccc2nc(N)nc(NCc3noc(C)n3)c21 [Compound 196] | 12.6 µM | 0.01 µM | 0.002 µM
Cc1nc(Cn2ccc3nc(N)nc(NC(C)c4ccccn4)c32)cs1 (stereo not drawn) [Compound 197] | >25 µM | 0.39 µM | 0.04 µM
CC(C)(O)CCNc1nc(N)nc2ccn(Cc3ccccn3)c12 [Compound 198] | >25 µM | 8.76 µM | 0.617 µM
Cc1nc(CNc2nc(N)nc3ccn(Cc4ncccn4)c23)no1 [Compound 203] | >25 µM | 1.04 µM | 0.138 µM
Cc1nc(CNc2nc(N)nc3ccn(Cc4cnccn4)c23)no1 [Compound 204] | >25 µM | 1.78 µM | 0.188 µM
COc1ccccc1Cn1ccc2nc(N)nc(NCc3noc(C)n3)c21 [Compound 205] | 7.7 µM | <0.01 µM | 0.001 µM
COc1cc(OC)nc(Cn2ccc3nc(N)nc(NCc4noc(C)n4)c32)n1 [Compound 209] | >25 µM | 0.04 µM | 0.008 µM
COc1cc(OC)nc(Cn2ccc3nc(N)nc(NCc4ncc(C)o4)c32)n1 [Compound 210] | >25 µM | 0.02 µM | 0.003 µM
COC[C@H](C)Nc1nc(N)nc2ccn(Cc3ccccn3)c12 [Compound 211] | 22 µM | 6.94 µM | 0.47 µM
COc1cccnc1Cn1ccc2nc(N)nc(NCc3ncc(C)o3)c21 [Compound 213] | >25 µM | <0.01 µM | 0.001 µM
COc1ccccc1Cn1ccc2nc(N)nc(NCc3ncc(C)s3)c21 [Compound 215] | >25 µM | <0.01 µM | 0.001 µM
